According to patent US20260130395A1, “Water Dispersible Botanical Compositions” (Aquila Black Limited, priority 2021, published 2026):

Assay: Stability of cannabinoid compounds and Vitamin E components in Beverage 1 (AB White) by LCMSMS
Assay type: physicochemical
Details: for Stability of Plant-Derived Cannabinoid Compounds in AB White, 21-25° C.: AB White stored at 21-25° C.
[1] = AB White stored at 8° C., 570 days

CCCCCc1cc(O)c2c(c1)OC(C)(C)[C@@H]1CCC(C)=C[C@@H]21 [D9 THC, delta-9-tetrahydrocannabinol, reference compound]
Stability of Plant-Derived Cannabinoid Compounds in AB White, 8° C. (AB White stored at 8° C., 0 days): 12.2 µg/mL
Stability of Plant-Derived Cannabinoid Compounds in AB White, 8° C. (AB White stored at 8° C., 1 days): 12.20 µg/mL
Stability of Plant-Derived Cannabinoid Compounds in AB White, 8° C. (AB White stored at 8° C., 2 days): 11.91 µg/mL
Stability of Plant-Derived Cannabinoid Compounds in AB White, 8° C. (AB White stored at 8° C., 3 days): 12.25 µg/mL
Stability of Plant-Derived Cannabinoid Compounds in AB White, 8° C. (AB White stored at 8° C., 5 days): 12.11 µg/mL
Stability of Plant-Derived Cannabinoid Compounds in AB White, 8° C. (AB White stored at 8° C., 8 days): 11.83 µg/mL
Stability of Plant-Derived Cannabinoid Compounds in AB White, 8° C. (AB White stored at 8° C., 9 days): 12.14 µg/mL
Stability of Plant-Derived Cannabinoid Compounds in AB White, 8° C. (AB White stored at 8° C., 10 days): 12.07 µg/mL
Stability of Plant-Derived Cannabinoid Compounds in AB White, 8° C. (AB White stored at 8° C., 11 days): 11.83 µg/mL
Stability of Plant-Derived Cannabinoid Compounds in AB White, 8° C. (AB White stored at 8° C., 12 days): 11.88 µg/mL
Stability of Plant-Derived Cannabinoid Compounds in AB White, 8° C. (AB White stored at 8° C., 15 days): 12.08 µg/mL
Stability of Plant-Derived Cannabinoid Compounds in AB White, 8° C. (AB White stored at 8° C., 16 days): 12.18 µg/mL
Stability of Plant-Derived Cannabinoid Compounds in AB White, 8° C. (AB White stored at 8° C., 17 days): 12.05 µg/mL
Stability of Plant-Derived Cannabinoid Compounds in AB White, 8° C. (AB White stored at 8° C., 18 days): 12.00 µg/mL
Stability of Plant-Derived Cannabinoid Compounds in AB White, 8° C. (AB White stored at 8° C., 19 days): 12.11 µg/mL
Stability of Plant-Derived Cannabinoid Compounds in AB White, 8° C. (AB White stored at 8° C., 22 days): 11.97 µg/mL
Stability of Plant-Derived Cannabinoid Compounds in AB White, 8° C. (AB White stored at 8° C., 23 days): 12.03 µg/mL
Stability of Plant-Derived Cannabinoid Compounds in AB White, 8° C. (AB White stored at 8° C., 24 days): 11.87 µg/mL
Stability of Plant-Derived Cannabinoid Compounds in AB White, 8° C. (AB White stored at 8° C., 25 days): 11.99 µg/mL
Stability of Plant-Derived Cannabinoid Compounds in AB White, 8° C. (AB White stored at 8° C., 26 days): 11.97 µg/mL
Stability of Plant-Derived Cannabinoid Compounds in AB White, 8° C. (AB White stored at 8° C., 29 days): 12.25 µg/mL
Stability of Plant-Derived Cannabinoid Compounds in AB White, 8° C. (AB White stored at 8° C., 30 days): 12.05 µg/mL
Stability of Plant-Derived Cannabinoid Compounds in AB White, 8° C. (AB White stored at 8° C., 60 days): 11.77 µg/mL
Stability of Plant-Derived Cannabinoid Compounds in AB White, 8° C. (AB White stored at 8° C., 90 days): 11.92 µg/mL
Stability of Plant-Derived Cannabinoid Compounds in AB White, 8° C. (AB White stored at 8° C., 120 days): 11.79 µg/mL
Stability of Plant-Derived Cannabinoid Compounds in AB White, 8° C. (AB White stored at 8° C., 150 days): 12.07 µg/mL
Stability of Plant-Derived Cannabinoid Compounds in AB White, 8° C. (AB White stored at 8° C., 180 days): 11.66 µg/mL
Stability of Plant-Derived Cannabinoid Compounds in AB White, 8° C. (AB White stored at 8° C., 210 days): 11.79 µg/mL
Stability of Plant-Derived Cannabinoid Compounds in AB White, 8° C. (AB White stored at 8° C., 240 days): 11.70 µg/mL
Stability of Plant-Derived Cannabinoid Compounds in AB White, 8° C. (AB White stored at 8° C., 270 days): 11.98 µg/mL
Stability of Plant-Derived Cannabinoid Compounds in AB White, 8° C. (AB White stored at 8° C., 300 days): 11.70 µg/mL
Stability of Plant-Derived Cannabinoid Compounds in AB White, 8° C. (AB White stored at 8° C., 330 days): 11.68 µg/mL
Stability of Plant-Derived Cannabinoid Compounds in AB White, 8° C. (AB White stored at 8° C., 360 days): 11.88 µg/mL
Stability of Plant-Derived Cannabinoid Compounds in AB White, 8° C. (AB White stored at 8° C., 390 days): 11.85 µg/mL
Stability of Plant-Derived Cannabinoid Compounds in AB White, 8° C. (AB White stored at 8° C., 420 days): 11.77 µg/mL
Stability of Plant-Derived Cannabinoid Compounds in AB White, 8° C. (AB White stored at 8° C., 450 days): 11.80 µg/mL
Stability of Plant-Derived Cannabinoid Compounds in AB White, 8° C. (AB White stored at 8° C., 480 days): 11.60 µg/mL
Stability of Plant-Derived Cannabinoid Compounds in AB White, 8° C. (AB White stored at 8° C., 510 days): 11.33 µg/mL
Stability of Plant-Derived Cannabinoid Compounds in AB White, 8° C. (AB White stored at 8° C., 540 days): 11.27 µg/mL
Stability of Plant-Derived Cannabinoid Compounds in AB White, 8° C. [1]: 11.21 µg/mL
stability over the entire period (in words) [1]: high degree of stability
Stability of Plant-Derived Cannabinoid Compounds in AB White, 21-25° C. (0 days): 12.2 µg/mL
Stability of Plant-Derived Cannabinoid Compounds in AB White, 21-25° C. (1 days): 11.8 µg/mL
Stability of Plant-Derived Cannabinoid Compounds in AB White, 21-25° C. (2 days): 12.0 µg/mL
Stability of Plant-Derived Cannabinoid Compounds in AB White, 21-25° C. (3 days): 11.9 µg/mL
Stability of Plant-Derived Cannabinoid Compounds in AB White, 21-25° C. (5 days): 12.1 µg/mL
Stability of Plant-Derived Cannabinoid Compounds in AB White, 21-25° C. (8 days): 12.3 µg/mL
Stability of Plant-Derived Cannabinoid Compounds in AB White, 21-25° C. (9 days): 11.8 µg/mL
Stability of Plant-Derived Cannabinoid Compounds in AB White, 21-25° C. (10 days): 11.7 µg/mL
Stability of Plant-Derived Cannabinoid Compounds in AB White, 21-25° C. (11 days): 12.1 µg/mL
Stability of Plant-Derived Cannabinoid Compounds in AB White, 21-25° C. (12 days): 11.9 µg/mL
Stability of Plant-Derived Cannabinoid Compounds in AB White, 21-25° C. (15 days): 12.1 µg/mL
Stability of Plant-Derived Cannabinoid Compounds in AB White, 21-25° C. (16 days): 12.1 µg/mL
Stability of Plant-Derived Cannabinoid Compounds in AB White, 21-25° C. (17 days): 11.9 µg/mL
Stability of Plant-Derived Cannabinoid Compounds in AB White, 21-25° C. (18 days): 11.8 µg/mL
Stability of Plant-Derived Cannabinoid Compounds in AB White, 21-25° C. (19 days): 12.3 µg/mL
Stability of Plant-Derived Cannabinoid Compounds in AB White, 21-25° C. (22 days): 11.9 µg/mL
Stability of Plant-Derived Cannabinoid Compounds in AB White, 21-25° C. (23 days): 12.0 µg/mL
Stability of Plant-Derived Cannabinoid Compounds in AB White, 21-25° C. (24 days): 12.1 µg/mL
Stability of Plant-Derived Cannabinoid Compounds in AB White, 21-25° C. (25 days): 12.3 µg/mL
Stability of Plant-Derived Cannabinoid Compounds in AB White, 21-25° C. (26 days): 12.1 µg/mL
